PubChem BioAssay (NCI)
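Exposure lasted 48 hours, with cells grown in 96-well plates and compounds tested at five concentrations. At the TGI there is no net growth.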

Tests used:
Test in all cases: NCI-60 cell line screen, 48 h
[1] = tested on: UACC-62 melanoma
[2] = tested on: MDA-N
[3] = tested on: SK-MEL-2 melanoma
[4] = tested on: UO-31 renal
[5] = tested on: NCI-H522 lung
[6] = tested on: PC-3 prostate
[7] = tested on: OVCAR-8 ovarian
[8] = tested on: M14 melanoma
[9] = tested on: NCI-H460 lung
[10] = tested on: TK-10 renal
[11] = tested on: MDA-MB-231 breast
[12] = tested on: HT29 colon
[13] = tested on: SW-620 colon
[14] = tested on: HOP-62 NSCLC
[15] = tested on: A549 NSCLC
[16] = tested on: HCC-2998 colon
[17] = tested on: OVCAR-4 ovarian
[18] = tested on: SNB-75 CNS
[19] = tested on: KM12 colon
[20] = tested on: CCRF-CEM leukemia
[21] = tested on: IGROV1 ovarian
[22] = tested on: HCT-15 colon
[23] = tested on: COLO 205 colon
[24] = tested on: SK-OV-3 ovarian
[25] = tested on: LOX IMVI melanoma
[26] = tested on: MCF7 breast
[27] = tested on: HCT-116 colon
[28] = tested on: SR leukemia
[29] = tested on: NCI/ADR-RES ovarian
[30] = tested on: EKVX NSCLC
[31] = tested on: SF-268 CNS
[32] = tested on: MALME-3M melanoma
[33] = tested on: K-562 leukemia
[34] = tested on: T-47D breast
[35] = tested on: CAKI-1 renal
[36] = tested on: SF-295 CNS
[37] = tested on: SK-MEL-28 melanoma
[38] = tested on: SNB-19 CNS
[39] = tested on: SN12C renal
[40] = tested on: UACC-257 melanoma
[41] = tested on: NCI-H226 lung
[42] = tested on: HS 578T breast
[43] = tested on: RXF 393 renal
[44] = tested on: BT-549 breast
[45] = tested on: A498 renal
[46] = tested on: NCI-H23 lung
[47] = tested on: DU-145 prostate
[48] = tested on: U251 CNS
[49] = tested on: MOLT-4 leukemia
[50] = tested on: OVCAR-3 ovarian
[51] = tested on: HL-60(TB) leukemia
[52] = tested on: MDA-MB-435
[53] = tested on: ACHN renal
[54] = tested on: 786-0 renal
[55] = tested on: RPMI-8226 leukemia
[56] = tested on: OVCAR-5 ovarian
[57] = tested on: HOP-92 NSCLC
[58] = tested on: SK-MEL-5 melanoma

Question: For `Cc1ccc([N+](=O)[O-])cc1S(=O)(=O)Nc1ccc(C2=NN(S(=O)(=O)c3cc([N+](=O)[O-])ccc3C)C(c3ccccc3)C2)cc1` (stereo not drawn), which TGI [1] is on record?
Answer: 44.7 µM

Question: What about the TGI [2] of the same compound?
Answer: 97.3 µM

Question: What about the TGI [3] of the same compound?
Answer: 61.6 µM

Question: What about the TGI [4] of the same compound?
Answer: > 100 µM

Question: What about the TGI [5] of the same compound?
Answer: 50.6 µM

Question: What about the TGI [6] of the same compound?
Answer: 98.8 µM

Question: And the TGI [7]?
Answer: > 100 µM

Question: And the TGI [8]?
Answer: 98.1 µM

Question: What about the TGI [9] of the same compound?
Answer: 55.5 µM

Question: And the TGI [10]?
Answer: > 100 µM

Question: What about the TGI [11] of the same compound?
Answer: 90.9 µM

Question: And the TGI [12]?
Answer: > 100 µM

Question: And the TGI [13]?
Answer: > 100 µM

Question: And the TGI [14]?
Answer: > 100 µM

Question: And the TGI [15]?
Answer: > 100 µM

Question: What about the TGI [16] of the same compound?
Answer: 59.8 µM

Question: And the TGI [17]?
Answer: > 100 µM

Question: What about the TGI [18] of the same compound?
Answer: > 100 µM

Question: What about the TGI [19] of the same compound?
Answer: > 100 µM

Question: And the TGI [20]?
Answer: > 100 µM

Question: What about the TGI [21] of the same compound?
Answer: > 100 µM

Question: And the TGI [22]?
Answer: > 100 µM

Question: What about the TGI [23] of the same compound?
Answer: 78.8 µM

Question: What about the TGI [24] of the same compound?
Answer: > 100 µM

Question: And the TGI [25]?
Answer: > 100 µM

Question: What about the TGI [26] of the same compound?
Answer: > 100 µM

Question: What about the TGI [27] of the same compound?
Answer: 51.8 µM

Question: What about the TGI [28] of the same compound?
Answer: > 100 µM

Question: And the TGI [29]?
Answer: 81.1 µM

Question: And the TGI [30]?
Answer: > 100 µM

Question: And the TGI [31]?
Answer: 56.7 µM

Question: And the TGI [32]?
Answer: 62.8 µM

Question: And the TGI [33]?
Answer: > 100 µM

Question: And the TGI [34]?
Answer: > 100 µM

Question: What about the TGI [35] of the same compound?
Answer: > 100 µM

Question: What about the TGI [36] of the same compound?
Answer: > 100 µM

Question: And the TGI [37]?
Answer: > 100 µM

Question: And the TGI [38]?
Answer: > 100 µM

Question: What about the TGI [39] of the same compound?
Answer: > 100 µM

Question: And the TGI [40]?
Answer: 74.7 µM

Question: What about the TGI [41] of the same compound?
Answer: > 100 µM

Question: And the TGI [42]?
Answer: 21.2 µM

Question: And the TGI [43]?
Answer: > 100 µM

Question: What about the TGI [44] of the same compound?
Answer: 57.2 µM

Question: And the TGI [45]?
Answer: 82.6 µM

Question: What about the TGI [46] of the same compound?
Answer: 60.5 µM

Question: And the TGI [47]?
Answer: > 100 µM

Question: And the TGI [48]?
Answer: > 100 µM

Question: What about the TGI [49] of the same compound?
Answer: > 100 µM

Question: And the TGI [50]?
Answer: 89.4 µM

Question: What about the TGI [51] of the same compound?
Answer: > 100 µM

Question: And the TGI [52]?
Answer: > 100 µM

Question: What about the TGI [53] of the same compound?
Answer: > 100 µM

Question: What about the TGI [54] of the same compound?
Answer: > 100 µM

Question: And the TGI [55]?
Answer: 76.1 µM

Question: And the TGI [56]?
Answer: > 100 µM

Question: What about the TGI [57] of the same compound?
Answer: > 100 µM

Question: And the TGI [58]?
Answer: > 100 µM
